Test results published in paper PMC8401923, “Processing Impact on In Vitro and In Vivo Performance of Solid Dispersions—A Comparison between Hot-Melt Extrusion and Spray Drying” (Pharmaceutics, 2021).
Converted amounts (≈) assume the structure as drawn. Read-outs that look alike come from different tables or passages of the source.

What was measured:
Format in all cases: physicochemical
pKa of posaconazole = assay: pKa of posaconazole
Excerpt: (§1) Table 1 Physical/chemical properties of posaconazole.

Log P of posaconazole = assay: Log P of posaconazole
Excerpt: as §1

[1] = Solubility of crystalline posaconazole
[2] = Two-stage biorelevant dissolution (SGF then FaSSIF)
Experimental: Simulated gastric fluid (SGF) was made with sodium chloride (34.2 mM), and the pH was adjusted to 1.8 with 12N HCl. The 2× fasted state simulated intestinal fluid (FaSSIF) was prepared using simulated intestinal fluid (SIF) powder (purchased from Biorelevant.com Ltd., London, UK), sodium phosphate monobasic monohydrate (114.5 mM), and sodium chloride (423.7 mM), and the pH was adjusted to 6.9 [35, 36].
Two-stage dissolution was performed on the solid dispersion powder at the dose relevant level of drug quantity using the Distek Model 2500 dissolution system (North Brunswick, NJ USA) with USP Apparatus 2 (paddles) setup. The paddles were operated at 100 rpm, and the dissolution medium was maintained at 37 ± 0.5 °C. The SGF medium of 250 mL was added for the first stage, and then FaSSIF medium of 250 mL at 30 min was added for the second stage to achieve the correct pH, ionic strength, and bile salt levels for FaSSIF. The time points that the sample was withdrawn were indicated by the dots in the dissolution plots. At each time point, ~2 mL was sampled and syringe-filtered (0.45 µm PVDF filter). The filtrate was diluted with diluent (water:acetonitrile = 1:1 v/v) and analyzed by an Agilent HPLC (Santa Clara, CA, USA) with a UV detector. […]

XPS surface composition = conditions: 25% bulk drug loading with HPMCAS
Experimental: X-ray Photoelectron Spectroscopy (XPS). XPS experiments were performed using a Physical Electronics Quantera SXM instrument equipped with a monochromatic Al Kα x-ray source (hν = 1486.6 eV) and a concentric hemispherical analyzer. Charge neutralization was performed using low energy (1.5 eV) electrons and low energy (8 V) Ar^+ ions. The binding energy axis was calibrated using sputter cleaned Cu foil (Cu 2p3/2 = 932.62 eV) and Au foil (Au 4f7/2 = 83.96 eV). Spectra were charge references to C-(C,H) at 284.8 eV. All measurements were performed at an electron takeoff angle of 45° relative to the sample platen plane.

In the case of `CC[C@@H]([C@H](C)O)n1ncn(-c2ccc(N3CCN(c4ccc(OC[C@@H]5CO[C@@](Cn6cncn6)(c6ccc(F)cc6F)C5)cc4)CC3)cc2)c1=O` [posaconazole], the pKa (pKa of posaconazole; piperazine N) is reported as 3.6, the pKa (pKa of posaconazole; triazole N) is reported as 4.6 and the logP (Log P of posaconazole) is reported as 5. For the same compound, the solubility ([1]; fasted state simulated intestinal fluid (FaSSIF), fassif, read-out: Solubility) was 2 µg/mL (≈ 2.85 µM), the solubility ([1]; pH 1, read-out: Solubility) was 790 µg/mL (≈ 1130 µM) and the solubility ([1]; pH 3, read-out: Solubility) was 3 µg/mL (≈ 4.28 µM). The solubility ([1]; pH 7, read-out: Solubility) was 1 µg/mL (≈ 1.43 µM), the solubility ([1]; simulated gastric fluid (SGF), pH 1.8, read-out: crystalline solubility) was about 790 µg/mL (≈ 1130 µM) and the “drug release in SGF stage (in words)” value ([2]; SGF pH 1.8, first 30 min) was “the percent dissolved is high”. The “drug release in FaSSIF stage (in words)” value ([2]; second stage, FaSSIF) was “significantly drops to approximately the crystalline solubility” and the “~API Loading on Surface Based on F and N” value (XPS surface composition) was about 100%.
